Assay results published in patent US10406162B2, “Substituted 2,3-dihydroimidazo[1,2-C]quinazoline-containing combinations” (BAYER PHARMA AKTIENGESELLSCHAFT, priority 2015, dated 2019).

Experiments:
[1] = test system: MFE 280 xenograft tumor model; test: In vivo efficacy in tumor xenograft model; design: species or system nude mice; conditions: for T/C (tumor area) / T/C (tumor weight): study end
Method: (§1) The in vivo efficacy was evaluated in tumor xenograft models in nude mice with established human tumor cell lines at the MTD and sub-MTD dosages. Tumor cells were cultivated according to ATCC protocols in recommended media contained 10% FCS. Cells were harvested for transplantation in a subconfluent (70%) state. The volume of implantation was 100 μl for mice. When the tumors were approximately in size of 25-50 mm^2, the animals were randomized to treatment and control groups and treatment was started. Treatment of each animal was based on individual body weight. The optimal formulation, application route and schedule were used for each compound (see table 2). Oral administration (p.o.) was carried out via a gastric tube. The oral application volumes were 10 ml/kg and the intravenous application volumes were 10 ml/kg. Tumor area (product of the longest diameter and its perpendicular) using a caliper. The animal body weight was monitored as a measure for treatment-related toxicity. Measurement of tumor area and body weight was performed 2-3 times weekly. T/C ratios (Treatment/Control) were calculated with final tumor areas. Treatment responses were evaluated by means of the clinically-used RECIST criteria (complete response, partial response, stable disease and progressive disease) and response rates were calculated accordingly (RR=number of animals with complete and partial response).
FIGS. 3A and 3B: Synergistic combination of PI3K inhibitor compound A (Copanlisib) with FGFR inhibitor compound B in MFE-280 xenograft tumor model. The combination of PI3K inhibitor compound A (copanlisib) and FGFR inhibitor compound B was tested and compared to the single agent activity and the SoC doxorubicin in MFE 280, an endometrial tumor model bearing both activating PIK3CA and FGFR2 mutations. At a tumor size of about 40 mm^2 the subcutaneously growing MFE-280 tumors were treated intravenously with two different doses of compound A (copanlisib), 14 (filled triangles)/10 (open triangles) mg/kg, and 7 mg/kg) and in combination of compound A and compound B. The dosing schedule for compound A is depicted in FIG. 3A with triangles. […] Doxorubicin was applied intravenously 1 time every 14 days as a SoC reference.

[2] = test system: MFE-280 cells; test: 48-hour caspase 3/7 activation assay (apoptosis induction); assay type: cell-based; conditions: single agent
Method: (§2) In vitro combination assessment: The effects of combinations of the present invention were evaluated using combination index isobologram analysis for in vitro assessment. The efficacy parameters were the effects in a 48-hour caspase 3/7 activation assay. Briefly, cells were plated in 384-well plate with 25 μL medium. After 24 hours, 5 μL of experimental media containing: • either A alone, or • B alone, or • the combination of A (as component A) plus either B, (as component B), at different ratios (***) were used to make serial 3-fold dilutions to generate response curves with 7 concentrations. Experiments were conducted in triplicates. Caspase 3/7 assay was conducted at 48 hours after compound exposure.
FIG. 1: Synergistic combination of PI3K inhibitor compound A (Copanlisib) with FGFR inhibitor compound B in MFE-280 cells (PIK3CA^G1047Y, FGFR2^S252W). The combination of PI3K inhibitor compound A (copanlisib) and FGFR inhibitor compound B was tested and compared to the single agent activity in MFE 280 to address the activity in apoptosis induction using a cleaved caspase 3/7 assay. MFE 280 cells are bearing both activating PIK3CA and FGFR2 mutations.

[3] = test system: MFE-296 cells; test: as above; assay type: cell-based; conditions: single agent
Method: as §2
FIG. 2: Synergistic combination of PI3K inhibitor compound A (Copanlisib) with FGFR inhibitor compound B in MFE-296 cells (PTEN^del, FGFR2^N549K). The combination of PI3K inhibitor compound A (copanlisib) and FGFR inhibitor compound B was tested and compared to the single agent activity in MFE 296 to address the activity in apoptosis induction using a cleaved caspase 3/7 assay. MFE 296 cells are bearing activating FGFR2 mutation and loss-of-PTEN.

[4] = test system: Ishikawa; test: IC50 in endometrial cancer cell lines (untitled table); assay type: cell-based; conditions: Homo sapiens, PTEN^del, PIK3R1^mut, ER+, PR+, Type I
[5] = test system: HEC-1B; test: as above; assay type: cell-based; conditions: Homo sapiens, PIK3CA^mut, PIK3R2^mut, PTEN^Loss(protein) and KRAS^mut, Type II
[6] = test system: KLE; test: as above; assay type: cell-based; conditions: Homo sapiens, FBXW7^mut, Type II
[7] = test system: AN3CA; test: as above; assay type: cell-based; conditions: Homo sapiens, AN3-CA, PTEN^del, FBXW7, FGFR2^N549K, K310R, Type II
[8] = test system: MFE 296; test: as above; assay type: cell-based; conditions: Homo sapiens, PTEN^del, FGFR2^N549K, UTX^del, Type II
[9] = Body weight as a measure for treatment-related toxicity in MFE-280 xenograft study; conditions: mouse, in vivo, 7 mg/kg
Method: as §1, with “response). […]” for “response).”

[10] = test system: RL95-2; test: IC50 in endometrial cancer cell lines (untitled table); assay type: cell-based; conditions: Homo sapiens, PIK3R1^mut/PTEN^del/NF2/BRCA2, Type II
[11] = test system: MFE 280; test: as above; assay type: cell-based; conditions: Homo sapiens, PIK3CA^G1047Y, RB^del, FGFR2^5252W, Type II
[12] = test system: ECC-1; test: as above; assay type: cell-based; conditions: Homo sapiens, PTEN^del, PIK3R1^mut, ER+, PR+, Type I
[13] = test system: RUCA; test: as above; assay type: cell-based; conditions: PTEN^del, ER+, Type I
[14] = test system: endometrial cancer; test: Phase I study, clinical outcomes in endometrial cancer patients; assay type: in vivo, human
Method: (§3) In a phase I dose escalation study, subjects were treated with Compound A (copanlisib) administered intravenously over 60 minutes on days 1, 8, and 15 of every 28 day cycle. Seventeen subjects were treated in 5 dose escalation cohorts (0.1, 0.2, 0.4, 0.8, and 1.2 mg/kg), and the maximum tolerated dose (MTD) was determined to be 0.8 mg/kg. Additional patients were enrolled into the study in 3 expansion cohorts treated at the MTD to assess safety, pharmacokinetics, biomarkers, and clinical benefit in selected patient populations, including solid tumors (n=25), non-Hodgkin lymphoma (NHL; n=9), and diabetic solid tumor patients (n=6; treated at 0.4 mg/kg).
PIK3CA, BRAF, and KRAS mutations were tested using digital PCR on archival tumor samples and cell free DNA isolated from plasma. Next generation sequencing (NGS) of a panel of tumor genes and immunohistochemistry (IHC) for PTEN protein were also performed on archival tumor samples. […] Of the 2 endometrial cancer patients with extended SD lasting more than 8 cycles, PTEN data could only be generated for 1 (patient #2117), and this tumor was also PTEN-negative by IHC (Table 4). The other endometrial cancer patient with extended SD (with 24.3% tumor shrinkage) harbored a KRAS tumor mutation (Table 4). […] Activation of PI3K pathway signaling via a number of mechanisms alone or in combination, such as PTEN loss and/or mutation, PIK3CA mutation, and/or KRAS mutation, may enrich Compound A (copanlisib) activity in this population.

[15] = test system: HEC-1A; test: IC50 in endometrial cancer cell lines (untitled table); assay type: cell-based; conditions: Homo sapiens, PIK3CA^G1049R, PIK3R2^mut, KRAS^mut, Type II
[16] = test system: HEC-50; test: as above; assay type: cell-based; conditions: Hec50, PIK3R1^mut, KRAS^mut, Type II
[17] = Phase I dose escalation study, maximum tolerated dose; conditions: human, in vivo, iv; intravenously over 60 minutes on days 1, 8, 15 of every 28 day cycle
Method: as §3

[18] = Doxorubicin Q14D (SoC reference)
[19] = Compound A (14)10 mg/kg i.v. Q2D
[20] = Pt 2004, 0.4 mg/kg (40 mg), stage IV
[21] = Pt 2116, 0.8 mg/kg (59 mg), stage IV
[22] = Pt 2117, 0.8 mg/kg (51 mg), stage IIIC

COc1cccc2c1C(=O)c1c(O)c3c(c(O)c1C2=O)C[C@@](O)(C(=O)CO)C[C@@H]3O[C@H]1C[C@H](N)[C@H](O)[C@H](C)O1 [Doxorubicin, reference compound]
CR (complete response) [1, 18]: 0%
PD (progressive disease) [1, 18]: 37.5%
PR (partial response) [1, 18]: 12.5%
RR (response rate) [1, 18]: 12.5%
T/C (tumor area) [1, 18]: 0.51
T/C (tumor weight) [1, 18]: 0.39
tumor growth inhibition assessed by tumor weight ([1]; SoC Doxorubicin): 61%

COCc1c(-c2cc3cc(C)cc(OC)c3s2)c2c(N)ncnn2c1CN1CCNC(=O)C1 [Compound B, 4-{[4-Amino-6-(methoxymethyl)-5-(7-methoxy-5-methyl-1-benzothiophen-2-yl)pyrrolo[2,1-f][1,2,4]triazin-7-yl]methyl}piperazin-2-one]
CR (complete response) ([1]; Compound B 75 mg/kg p.o. QD): 12.5%
PD (progressive disease) ([1]; Compound B 75 mg/kg p.o. QD): 12.5%
PR (partial response) ([1]; Compound B 75 mg/kg p.o. QD): 0%
RR (response rate) ([1]; Compound B 75 mg/kg p.o. QD): 12.5%
T/C (tumor area) ([1]; Compound B 75 mg/kg p.o. QD): 0.39
T/C (tumor weight) ([1]; Compound B 75 mg/kg p.o. QD): 0.22
tumor growth inhibition ([1]; compound B, at the end of the study): 78%
concentration up to which no apoptosis induction was shown (cleaved caspase 3/7) [2]: > 10 µM
concentration up to which no apoptosis induction was shown (cleaved caspase 3/7) [3]: > 10 µM

COc1c(OCCCN2CCOCC2)ccc2c1N=C(NC(=O)c1cnc(N)nc1)N1CCN=C21 [Compound A, 2-amino-N-[7-methoxy-8-(3-morpholin-4-ylpropoxy)-2,3-dihydroimidazo[1,2-c]quinazolin-5-yl]pyrimidine-5-carboxamide]
IC50 [4]: 373 nM
IC50 [5]: < 6.86 nM
IC50 [6]: < 6.86 nM
IC50 [7]: < 6.86 nM
IC50 [8]: < 6.86 nM
CR (complete response) ([1]; Compound A 7 mg/kg i.v. Q2D): 0%
PD (progressive disease) ([1]; Compound A 7 mg/kg i.v. Q2D): 25%
PR (partial response) ([1]; Compound A 7 mg/kg i.v. Q2D): 25%
RR (response rate) ([1]; Compound A 7 mg/kg i.v. Q2D): 25%
T/C (tumor area) ([1]; Compound A 7 mg/kg i.v. Q2D): 0.40
T/C (tumor weight) ([1]; Compound A 7 mg/kg i.v. Q2D): 0.24
CR (complete response) [1, 19]: 0%
PD (progressive disease) [1, 19]: 0%
PR (partial response) [1, 19]: 37.5%
RR (response rate) [1, 19]: 37.5%
T/C (tumor area) [1, 19]: 0.34
T/C (tumor weight) [1, 19]: 0.16
reduction of tumor weight ([1]; compound A 7 mg/kg): ~76%
reduction of tumor weight ([1]; compound A (14)10 mg/kg): approximately 84%
body weight loss compared to starting body weight [9]: No body weight loss
IC50 [10]: 144 nM
IC50 [11]: < 6.86 nM
IC50 [12]: 161 nM
IC50 [13]: 13.7 nM
clinical benefit (patients with CR, PR or SD) ([14]; 4 of 5 endometrial cancer patients): 80%
Best % change in tumor size from screening [14, 20]: −24.3%
Best response [14, 20]: SD 8 cycles
Best % change in tumor size from screening ([14]; Pt 2008, 0.8 mg/kg (40 mg), stage IV): 2.4%
Best % change in tumor size from screening [14, 21]: −8.7%
Best response [14, 21]: SD 2 cycles
Best % change in tumor size from screening [14, 22]: −9.1%
Best response [14, 22]: SD 8 cycles
Best % change in tumor size from screening ([14]; Pt 3106, 0.8 mg/kg (46 mg, then 37 mg), stage IV): −61.8%
tumor shrinkage ([14]; endometrial cancer patient with extended SD and KRAS tumor mutation): 24.3%
IC50 [15]: < 6.86 nM
concentration up to which no apoptosis induction was shown (cleaved caspase 3/7) [2]: > 5 µM
concentration up to which no apoptosis induction was shown (cleaved caspase 3/7) [3]: > 5 µM
IC50 [16]: 64.6 nM
MTD [17]: 0.8 mg/kg
